From US20210205638A1, “PARATHYROID HORMONE AND REGENERATION OF DEGENERATIVE DISCS DISEASE” (THE JOHNS HOPKINS UNIVERSITY, priority 2017, published 2021)

Key:
β6 integrin promoter = experiment: Chromatin immunoprecipitation of pCREB on β6 integrin promoter in NP cells; assay type: cell-based, mouse; conditions: ChIP, most distal CREB site (Primer 1)
Experimental: The ChIP assays were carried out using the Thermo Fisher ChIP Kit (catalog number: 26156). The crude homogenate from the NP cells was crosslinked with 1% formaldehyde at room temperature for 10 min. The reaction was stopped by adding glycine (0.25 M). After centrifugation, the pellet was collected and lysed in SDS lysis buffer containing protease inhibitor cocktail. The lysis was sonicated until the DNA was broken into fragments with a mean length of 200-1,000 bp. The samples were first pre-cleaned with protein G agarose and then subjected to immunoprecipitation overnight with […] of rabbit antibodies against pCREB (CST, 1:50) With […] of normal rabbit serum overnight at 4° C. The 10-20% of the sample for immunoprecipitation was used as an input (a positive control).

β6 integrin = experiment: qRT-PCR of integrin mRNA in NP tissue of aged mice; assay type: in vivo, mouse; conditions: NP cells of the aged mice
Experimental: After protein extraction, specimen from the same group of mice were prepared for RNA extraction using TRIzol reagent (Invitogen) according to the manufacturer's instruction. The purity of RNA was tested by measuring the absorbance at 260 and 280 nm. For qRT-PCR, two micrograms of RNA was reverse transcribed into cDNA using the SuperScript firststrand synthesis system (Invitrogen) and analyzed with SYBR Green-Master Mix (Qiagen) in the thermal cycler with two sets of primers specific for each target gene. Relative expression was calculated for each gene by the 2^−ΔΔCT method, with GAPDH for normalization.

TGF-β = experiment: ELISA of total and active TGF-β in NP tissue of aged mice; assay type: in vivo, mouse; conditions: 18-month-old mice
Experimental: (§1) For cAMP assays, confluent cells were grown in 35-mm six-well plates starved overnight by incubation in serum-free α-MEM at 37° C. The cells were then treated with 100 nM human of human PTH (1-34; Bachem Calif., Inc.) for 1 h. Cellular cAMP was extracted and the concentration measured with the Biotrak enzyme immunoassay system (GE Healthare, Inc., Princeton, HJ). We determined the concentration of total and active TGF-β in the NP tissue using the ELISA Development Kit (R&D Systems) according to the manufacturer's instructions.

NP cells [1] = experiment: cAMP assay in NP cells (enzyme immunoassay); assay type: cell-based, mouse; conditions: PTH (1-34) 100 nmol
Experimental: Green fluorescent protein (GFP) labeled NP cells of notochordal origin were isolated from 15-day old Noto^Cre/+::ROSA26-lacZ^flox/flox male mice as previously described. The NP cells from 15-day old PTH1R^+/+ and PTH1R^−/−, IFT88^+/+ and IFT88^−/− male mice. Briefly, the cells were isolated from the NP region of IVDs in the spinal column from mid thoracic to lower lumbar region and digested initially with TrypLE Express (Gibco) for 30 minutes on shaker, followed by 0.25 mg/ml Collagense-P (Roche) for another […] at 37° C. The digested cells were washed twice with PBS, and cultured in α-MEM (Gibco) supplemented with 10% fetal calf serum (Atlanta Biologicals), and 1% penicillin—streptomycin (Mediatech) to 80-90% confluence at 37° C., 5% CO2 and 5% O2.
as §1

NP cells [2] = experiment: pCREB immunostaining of IVD sections at time points after PTH treatment; assay type: in vivo, mouse
Experimental: For immunocytochemical staining, we incubated GFP labeled NP cells co-stained with primary antibody to rabbit PTH1R PRB-635P (Covance, 1:100) for 1 h and subsequently stained with secondary antibodies conjugated with fluorescence at room temperature. At the time of euthanasia, we dissected and fixed the lumbar vertebral spine in 10% buffered formalin for 48 h, decalcified them in 10% EDTA (pH 7.4) for 14-21 days and embedded them in paraffin or optimal cutting temperature (OCT) compound (Sakura Finetek). Fourmicrometer-thick coronal-oriented sections of the L1-L6 spine were processed for safranin O and fast green staining. […] For immunofluorescent assay, the slides were incubated with secondary antibodies conjugated with fluorescence at room temperature for 1 h while avoiding light. […]
Quantitative histomorphometric analysis was conducted in a blinded fashion with Image-Pro Plus Software version 6.0 (Media Cybernetics Inc). […] Five randomly selected sections per mice in each group at L3-L4 level were chosen for quantitative histomorphometric analysis. […] The percentage area of CCN2 and ACAN positive staining was calculated by measuring the positive area to the whole area of the L3-L4 in each group.

integrin β6 = experiment: Western blot of integrin β6 in NP cells at time points after PTH; assay type: cell-based, mouse; conditions: PTH1-34 100 nM, time dependent manner
Experimental: Western blot analyses were conducted on the protein lysates from in vitro cultured NP cells or NP tissues from mice at specific time points after PTH (1-34) treatment and human at different ages with lumbar disc degeneration. The protein extract was centrifuged, the concentration of supernatant evaluated by DC protein assay (Bio-Rad Laboratories), and then separated by SDS-PAGE and blotted on a polyvinylidene fluoride membrane (Bio-Rad Laboratories). Following incubation in specific antibodies, we detected proteins using an enhanced chemiluminescence kit (Amersham Biosciences). We used specific antibodies recognizing rabbit CTGF (CCN2) (Abcam, 1:1000), Aggrecan (ACAN) (Abcan, 1:1000), p-Smad2 (Cell Signaling Technology Inc., 1:1000), Smad2 (Cell Signaling Technology Inc., 1:1000), GAPDH (Cell Signaling Technology Inc., 1:1000), CREB (Abcam, 1:2500), pCREB (Abcam, 1:2500), PTH1R PRB-635P (Covance, 1:100), PTH1R PRB-640P (Covance, 1:500) and goat integrin β6 (Santa Cruz, 1:500) to examine the protein concentrations in the lysates. Co-immunoprecipitation analyses were conducted on the nuclear and cytoplasmic protein extraction using NE-PER Nuclear and Cytoplasmic Extraction Kit (Pierce Thermo Scientific, 78833) from in vitro cultured NP cells treated with PTH (1-34) or vehicle.

For `CC[C@H](C)[C@H](NC(=O)[C@H](CCC(=O)O)NC(=O)[C@H](CO)NC(=O)[C@@H](NC(=O)[C@@H](N)CO)C(C)C)C(=O)N[C@@H](CCC(N)=O)C(=O)N[C@@H](CC(C)C)C(=O)N[C@@H](CCSC)C(=O)N[C@@H](Cc1cnc[nH]1)C(=O)N[C@@H](CC(N)=O)C(=O)N[C@@H](CC(C)C)C(=O)NCC(=O)N[C@@H](CCCCN)C(=O)N[C@@H](Cc1cnc[nH]1)C(=O)N[C@@H](CC(C)C)C(=O)N[C@@H](CC(N)=O)C(=O)N[C@@H](CO)C(=O)N[C@@H](CCSC)C(=O)N[C@@H](CCC(=O)O)C(=O)N[C@@H](CCCN=C(N)N)C(=O)N[C@H](C(=O)N[C@@H](CCC(=O)O)C(=O)N[C@@H](Cc1c[nH]c2ccccc12)C(=O)N[C@@H](CC(C)C)C(=O)N[C@@H](CCCN=C(N)N)C(=O)N[C@@H](CCCCN)C(=O)N[C@@H](CCCCN)C(=O)N[C@@H](CC(C)C)C(=O)N[C@@H](CCC(N)=O)C(=O)N[C@@H](CC(=O)O)C(=O)N[C@H](C(=O)N[C@@H](Cc1cnc[nH]1)C(=O)N[C@@H](CC(N)=O)C(=O)N[C@@H](Cc1ccccc1)C(=O)O)C(C)C)C(C)C` [PTH (1-34), teriparatide], the “binding of pCREB to the β6 integrin promoter” value (β6 integrin promoter) was “inducing direct binding of pCREB”, the “mRNA expression of β6 integrin” value (β6 integrin) was “specifically induced” and the “level of active TGF-β in IVDs” value (TGF-β) was “increased”. For the same compound, the “total TGF-β level” value (TGF-β) was “not changed”, the “time at which cAMP level in NP cells peaked” value (NP cells [1]) was 30 min and the “time at which number of pCREB+ cells in NP area peaked” value (NP cells [2]; after treatment) was 1 hour. For the same compound, the “number of pCREB+ cells in NP area” value (NP cells [2]; at 30 minutes after treatment) was “increased” and the “protein level of β6 integrin” value (integrin β6) was “significantly stimulated”.
